Molecules are shown by their SMILES.

`Oc1cccc(OCC(O)CNCc2ccc3c(c2)OCO3)c1` (stereo not shown) [Compound 1e, N-((1,3-Benzodioxol-5-yl)methyl)-2-hydroxy-3-(3-hydroxyphenoxy)propylamine] showed a melting point of 230 to 231 °C.

The record behind these values is US6890955B2, “Aryloxypropanolamine derivatives, method of preparation and applications thereof” (Virbac SA, priority 1996, dated 2005).
